Experimental data taken from patent US20070270436A1, “NOVEL AMINO- AND IMINO-ALKYLPIPERAZINES” (Recordati Ireland Limited, priority 2006, published 2007).

Key:
[1] = system: urinary bladder; experiment: Cystometric parameters in conscious rats after oral administration; format: in vivo, rat; conditions: 3 mg/kg p.o., 1-5 h after treatment
Description: Male Sprague-Dawley rats [Crl: CD® (SD) IGS BR] of 300-400 g body weight supplied by Charles River Italia were used. The animals were housed with free access to food and water and maintained on a forced 12-hour-light/12-hour-dark cycle at 22-24° C. of temperature, except during the experiment. To quantify urodynamic parameters in conscious rats, cystometrographic studies were performed according to the procedure previously reported (Guarneri et al., Pharmacol. Res. 24: 175, 1991).
Briefly, the rats were anaesthetised by intraperitoneal administration of 3 ml/kg of Equithensin solution (pentobarbital 30 mg/kg and chloral hydrate 125 mg/kg) and placed in a supine position. An approximately 10 mm-long midline incision was made in the shaved and cleaned abdominal wall. The urinary bladder was gently freed from adhering tissues, emptied and then cannulated via an incision in the bladder body, using a polyethylene cannula (0.58-mm internal diameter, 0.96-mm external diameter) which was permanently sutured with silk thread. The cannula was exteriorised through a subcutaneous tunnel in the retroscapular area, where it was connected to a plastic adapter in order to avoid the risk of removal by the animal. For drug testing, the rats were utilised one day after implantation.
On the day of the experiment, the rats were placed in modified Bollman cages, i.e., restraining cages that were large enough to permit the rats to adopt a normal crouched posture, but narrow enough to prevent turning around. After a stabilisation period of about 20 minutes, the free tip of the bladder cannula was connected through a T-shaped tube to a pressure transducer (Statham P23XL) and to a peristaltic pump (Gilson minipuls 2) for continues infusion of a warm (37° C.) saline solution into the urinary bladder, at a constant rate of 0.1 ml/minute. The intraluminal-pressure signal during infusion of saline into the bladder was continuously recorded on a polygraph (Rectigraph-8K San-ei with BM614/2 amplifier from Biomedica Mangoni). The cystometrogram was used to evaluate the urodynamic parameters of bladder volume capacity (BVC) and micturition pressure (MP). BVC (ml) is defined as the volume of saline infused into the bladder necessary to induce detrusor contraction followed by micturition. MP (mmHg) is defined as the maximal intravesical pressure caused by contraction during micturition. Basal BVC and MP values were evaluated as mean of the values observed in the cystometrograms recorded in an initial period of 30-60 minutes. Following determination of basal BVC and MP, the infusion was interrupted and the test compounds were administered orally by a stomach tube. Bladder infusion was resumed and changes in BVC and MP were evaluated from the mean values obtained in the cystometrograms observed during 1, 2, 3, 4 and 5 hours after treatment. Compounds were administered in a volume of 2 ml/kg and groups of control animals received the same amount of vehicle (0.5% methocel in water) orally.
Data were expressed as mean ±standard error. The percent changes of BVC and MP versus the basal values, as well as Δ values (difference in ml or mmHg) of BVC and MP (BVC or MP at time “x” minus basal value), were also evaluated for each rat/time. In the figures, data were reported as % changes versus basal values.
Statistical analysis on BVC and MP values, as well as on Δ values, was performed by S.A.S./STAT software, version 6.12. The observed differences between vehicle (control) and test treatments were evaluated on Δ values of BVC and MP, whereas the differences between the values at different times versus basal values were analyzed on original BVC and MP data.

[2] = system: rhythmic bladder-voiding contractions; experiment: Rhythmic bladder-voiding contractions induced by bladder filling in anaesthetised rats; format: in vivo, rat; conditions: intravenous administration
Description: Female Sprague-Dawley rats weighing 225-275 g (Crl: CD® (SD) IGS BR, Charles River Italia) were used. The animals were housed with free access to food and water and maintained on a forced 12-hour alternating light-dark cycle at 22-24° C. for at least one week, except during the experiment. The activity on rhythmic bladder voiding contractions was evaluated according to the method of Dray (Dray J., Pharmacol. Methods, 13:157, 1985), with some modifications as in Guarneri (Guarneri, Pharmacol. Res. 27:173, 1993). Briefly, the rats were anaesthetised by subcutaneous injection of 1.25 g/kg (5 ml/kg) urethane, after which the urinary bladder was catheterised via the urethra using PE 50 polyethylene tubing filled with physiological saline. The catheter was tied in place with a ligature around the external urethral orifice and was connected to conventional pressure transducers (Statham P23 ID/P23 XL). […] The bladder was then filled via the recording catheter by incremental volumes of warm (37° C.) saline until reflex bladder-voiding contractions occurred (usually 0.8-1.5 ml). For intravenous injection of bioactive compounds, PE 50 polyethylene tubing filled with physiological saline was inserted into the jugular vein.
From the cystometrogram, the number of contractions recorded 15 minutes before (basal values) and after treatment, as well as the mean amplitude of these contractions (mean height of the peaks in mmHg), was evaluated.
Since most compounds produced an effect that was relatively rapid in onset and led to a complete cessation of bladder contractions, bioactivity was conveniently estimated by measuring the duration of bladder quiescence (i.e., the time during which no contractions occurred). The number of tested animals showing a reduction in the number of contractions higher than 30% of that observed in the basal period was recorded too.
The extrapolated doses which induced a reduction in the number of contractions greater than 30% in 50% of the treated rats (ED50) were also evaluated by the method of Bliss (Bliss C. I., Quart J. Pharm. Pharmacol. 11, 192-216, 1938).

SMILES	bladder volume capacity (BVC) [1]	micturition pressure (MP) [1]	ED50 (frequency) (extrapolated dose inducing a reduction of the number of contractions >30% in 50% of treated rats) [2] [mg/kg]	ED10 min (extrapolated dose inducing 10 minutes of disappearance of the contractions) [2] [mg/kg]
COc1ccccc1N1CCN(CC[C@@H](c2ccccc2F)[C@H](NC(=S)N(C)C)C2CCCCC2)CC1 (racemic) [Example 24, 3-{(RS,SR)-1-Cyclohexyl-2-(2-fluorophenyl)-4-[4-(2-methoxyphenyl)-piperazin-1-yl]butyl}-1,1-dimethylthiourea]	significantly increased	slight but significant reduction		
COc1ccccc1N1CCN(CCC(c2ccccc2F)C(C2CCCCC2)N(C)C(C)=O)CC1 (racemic) [Example 16, (RS,SR)- and (RS,RS)-N-{-1-Cyclohexyl-2-(2-fluorophenyl)-4-[4-(2-methoxyphenyl)piperazin-1-yl]butyl}-N-methylacetamide]	effective in increasing	without significant effects	0.031	0.072
